The source of these data is BindingDB's records for doi:10.1016/j.bmcl.2003.08.078 (University of Florida, 2003).

Usually EC50 stands for the midpoint of the concentration-response curve.

The target of this assay is Melanocortin receptor 4 (Mus musculus, UniProt P56450). In words: ChEBML_104255. From the text: Agonistic activity evaluated at melanocortin 4 receptor (MC4R) of mouse HEK293 cells
Melanocortin receptor 4, sequence (P56450 whole entry): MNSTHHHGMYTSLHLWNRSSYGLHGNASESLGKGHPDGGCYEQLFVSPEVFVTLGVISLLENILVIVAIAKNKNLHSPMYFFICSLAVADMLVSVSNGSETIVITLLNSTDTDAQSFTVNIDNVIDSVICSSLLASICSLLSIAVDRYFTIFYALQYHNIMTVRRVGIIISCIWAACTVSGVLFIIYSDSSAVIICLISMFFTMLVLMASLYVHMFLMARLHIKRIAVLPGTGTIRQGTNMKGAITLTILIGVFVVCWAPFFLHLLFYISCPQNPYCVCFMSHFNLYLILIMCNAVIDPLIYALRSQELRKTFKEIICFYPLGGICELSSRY

`CC(=O)N[C@@H](Cc1cnc[nH]1)C(=O)N[C@H](Cc1ccccc1)C(=O)N[C@@H](CCCN=C(N)N)C(=O)N[C@@H](Cc1c[nH]c2ccccc12)C(N)=O` [(S)-2-{(R)-2-[(S)-2-Acetylamino-3-(1H-imidazol-4-yl)-propionylamino]-3-phenyl-propionylamino}-5-guanidino-pentanoic acid [(S)-1-carbamoyl-2-(1H-indol-3-yl)-ethyl]-amide] returned a half-maximal effective concentration (EC50) of 17 nM.
